Test results: publication PMC10133546, “Simultaneous determination of multiple components in rat plasma by UHPLC-sMRM for pharmacokinetic studies after oral administration of Qingjin Yiqi Granules” (Frontiers in Pharmacology, 2023)

How the values were obtained:
[1] = Stability of the working solution (4°C for 1 month); type: physicochemical
Protocol: (§1) The stability of analytes in plasma was evaluated by analyzing 4 QC samples (n = 6). The stability was included auto-sampler stability (keeping the sample in auto-sampler for 24 h), three times of freeze-thaw cycles stability (freezing cycle at −80°C, thawing cycle at room temperature), room temperature stability (storing samples at room temperature for 24 h), long-term stability (storing samples at −80°C for 1 month). […] Accompanying curve was established when testing the sample, calculate and compare the ratio of the actual measured concentration to the theoretical concentration, expressed in accuracy and RSD.

[2] = Stability of analytes in rat plasma (auto-sampler, freeze-thaw, room temperature, long-term); settings: for Autosampler for 24 h Accuracy (%): autosampler 24 h; for Room temperature for 24 h Accuracy (%): room temperature 24 h; for Freeze thaw cycles Accuracy (%): three freeze-thaw cycles
Protocol: as §1

[3] = Pharmacokinetic study in rat plasma after oral administration of QJYQ (UHPLC-sMRM); type: in vivo, Sprague-Dawley rats; settings: male, Sprague-Dawley, rat plasma, oral QJYQ 3.15 g/kg, n = 8, mean ± SD; for AUC(0-t): read-out: AUC(0-t); for AUC(0-inf): read-out: AUC(0-∞); for Cmax: read-out: Cmax; for MRT inf: read-out: MRT (0-∞); for MRT last: read-out: MRT(0-t); for Tmax: rat, plasma, po, 3.15 g/kg, read-out: Tmax
Protocol: Exion LC AD tandem Blueline 3500 triple quadrupole mass spectrometer (AB SCIEX, Framingham, MA, United States) was used to thirty-three compounds in rat plasma. […] The whole detailed parameters of sMRM were obtained in Supplementary Table S1.
Rat plasma (100 μL) was mixed with 10% formic acid (10 μL) and vortexed for 1 min at room temperature. ISs (10 μL) and methanol/acetonitrile (1/1, v/v) (400 μL) were added and vortexed for 5 min, then centrifuged for 10 min at 14,000 rpm and 4°C. The transported supernatant was condensed to dryness under the flow of nitrogen gas. The dried residue was reconstituted with 70% methanol (100 μL) by vortex-mixing for 5 min and centrifuging at 14,000 rpm for 10 min. Last, 2 μL of the solution were injected into the UHPLC-sMRM system.
The pharmacokinetic study was approved by the Animal Ethics Committee of Tianjin University of Traditional Chinese Medicine (TCM-LAEC2021228). Ten male Sprague-Dawley rats (weight 220–240 g) was kept at the animal center of Tianjin University of Traditional Chinese Medicine (Tianjin, China). […] The sample was transferred right away following a 10 min period of centrifugation at 7000 rpm and 4°C. All plasma samples were frozen and stored at −80°C.
All the pharmacokinetic parameters were calculated using the DAS 1.0 software (Drug and Statistics 1.0, Medical College of Wannan, China). Pharmacokinetic parameters include the maximum drug concentration in plasma (Cmax), the time to achieve maximum drug concentration (Tmax), the area under the plasma concentration-time curve (AUC), elimination half-life (T1/2), and mean residence time (MRT). The pharmacokinetic parameters were computed using the non-compartmental model. All data are expressed as mean ± standard deviation (SD). GraphPad Prism 8.0 (GraphPad Software Inc., La Jolla, CA, United States) software was used to draw the drug-time curve.

half-life [3]	AUC(0-t) [3]	AUC(0-inf) [3]	Cmax [3]	MRT inf [3]	MRT last [3]	Compound	Working solution Accuracy (%) ([1]; 1.56 ng/mL)	Working solution Accuracy (%) ([1]; 100 ng/mL)	Working solution Accuracy (%) ([1]; 500 ng/mL)	Autosampler for 24 h Accuracy (%) ([2]; 1.56 ng/mL)	Room temperature for 24 h Accuracy (%) ([2]; 1.56 ng/mL)	Freeze thaw cycles Accuracy (%) ([2]; 1.56 ng/mL)	−80°C for 1month Accuracy (%) ([2]; 1.56 ng/mL, −80°C 1 month)	Autosampler for 24 h Accuracy (%) ([2]; 12.5 ng/mL)	Room temperature for 24 h Accuracy (%) ([2]; 12.5 ng/mL)	−80°C for 1month Accuracy (%) ([2]; 12.5 ng/mL, −80°C 1 month)	Autosampler for 24 h Accuracy (%) ([2]; 100 ng/mL)	Room temperature for 24 h Accuracy (%) ([2]; 100 ng/mL)	Freeze thaw cycles Accuracy (%) ([2]; 100 ng/mL)	−80°C for 1month Accuracy (%) ([2]; 100 ng/mL, −80°C 1 month)	further results
1.79 ± 0.38 h	381 ± 101 ng·h/mL	385 ± 126 ng·h/mL	153 ± 33.4 ng/mL	3.63 ± 1.57 h	3.03 ± 1.01 h	O=C(O)C=Cc1ccc(O)cc1 [p-Coumaric acid]	81.9%	95.9%	92.8%	83.2%	82.7%	95.1%	110.0%	102.0%	96.1%	85.1%	96.9%	98.7%	87.0%	115.0%	Freeze thaw cycles Accuracy (%) ([2]; 12.5 ng/mL): 95.2%; Autosampler for 24 h Accuracy (%) ([2]; 500 ng/mL): 115.0%; Room temperature for 24 h Accuracy (%) ([2]; 500 ng/mL): 97.8%; Freeze thaw cycles Accuracy (%) ([2]; 500 ng/mL): 88.7%; −80°C for 1month Accuracy (%) ([2]; 500 ng/mL, −80°C 1 month): 109.0%
1.67 ± 0.16 h	1110 ± 138 ng·h/mL	1120 ± 228 ng·h/mL	359 ± 147 ng/mL	5.38 ± 1.16 h	5.3 ± 0.28 h	CC1(C)[C@@H](O[C@H]2O[C@H](C(=O)O)[C@@H](O)[C@H](O)[C@H]2O[C@@H]2O[C@H](C(=O)O)[C@@H](O)[C@H](O)[C@H]2O)CC[C@]2(C)[C@H]3C(=O)C=C4[C@@H]5C[C@@](C)(C(=O)O)CC[C@]5(C)CC[C@@]4(C)[C@]3(C)CC[C@@H]12 [glycyrrhizic acid]	–	–	–	–	–	–	–	–	–	–	–	–	–	–	Working solution Accuracy (%) ([1]; concentration 50 ng/mL): 88.5%; Working solution Accuracy (%) ([1]; concentration 100 ng/mL): 104.0%; Working solution Accuracy (%) ([1]; concentration 500 ng/mL): 87.0%; Autosampler for 24 h Accuracy (%) ([2]; concentration 12.5 ng/mL): 94.4%; Autosampler for 24 h Accuracy (%) ([2]; concentration 50 ng/mL): 100.0%; Autosampler for 24 h Accuracy (%) ([2]; concentration 100 ng/mL): 94.3%; Autosampler for 24 h Accuracy (%) ([2]; concentration 500 ng/mL): 94.5%; Room temperature for 24 h Accuracy (%) ([2]; concentration 50 ng/mL): 94.6%; Room temperature for 24 h Accuracy (%) ([2]; concentration 100 ng/mL): 107.0%; Room temperature for 24 h Accuracy (%) ([2]; concentration 500 ng/mL): 89.9%; Freeze thaw cycles Accuracy (%) ([2]; concentration 12.5 ng/mL): 84.6%; Freeze thaw cycles Accuracy (%) ([2]; concentration 500 ng/mL): 97.0%; −80°C for 1month Accuracy (%) ([2]; −80°C for 1 month, concentration 12.5 ng/mL): 85.6%; −80°C for 1month Accuracy (%) ([2]; −80°C for 1 month, concentration 50 ng/mL): 89.7%; −80°C for 1month Accuracy (%) ([2]; −80°C for 1 month, concentration 100 ng/mL): 96.2%; −80°C for 1month Accuracy (%) ([2]; −80°C for 1 month, concentration 500 ng/mL): 93.4%; Tmax [3]: < 0.5 h

Compound	half-life [3]	AUC(0-t) [3]	AUC(0-inf) [3]	Cmax [3]	MRT inf [3]	MRT last [3]	Working solution Accuracy (%) ([1]; 1.56 ng/mL)	Working solution Accuracy (%) ([1]; 100 ng/mL)	Working solution Accuracy (%) ([1]; 500 ng/mL)	Autosampler for 24 h Accuracy (%) ([2]; 1.56 ng/mL)	Room temperature for 24 h Accuracy (%) ([2]; 1.56 ng/mL)	Freeze thaw cycles Accuracy (%) ([2]; 1.56 ng/mL)	−80°C for 1month Accuracy (%) ([2]; 1.56 ng/mL, −80°C 1 month)	Autosampler for 24 h Accuracy (%) ([2]; 12.5 ng/mL)	Room temperature for 24 h Accuracy (%) ([2]; 12.5 ng/mL)	−80°C for 1month Accuracy (%) ([2]; 12.5 ng/mL, −80°C 1 month)	Autosampler for 24 h Accuracy (%) ([2]; 100 ng/mL)	Room temperature for 24 h Accuracy (%) ([2]; 100 ng/mL)	Freeze thaw cycles Accuracy (%) ([2]; 100 ng/mL)	−80°C for 1month Accuracy (%) ([2]; 100 ng/mL, −80°C 1 month)	further results
O=C(O)c1ccc(O)c(O)c1 [protocatechuic acid]	2.33 ± 0.52 h	40.8 ± 10.9 ng·h/mL	40.9 ± 17.3 ng·h/mL	6.79 ± 4.35 ng/mL	5.32 ± 1.53 h	5.3 ± 1.02 h	82.3%	92.6%	88.9%	103.0%	110.0%	103.0%	80.4%	86.0%	91.0%	114.0%	98.5%	106.0%	90.0%	100.0%	Working solution Accuracy (%) ([1]; 12.5 ng/mL): 104.0%; Autosampler for 24 h Accuracy (%) ([2]; 500 ng/mL): 85.2%; Room temperature for 24 h Accuracy (%) ([2]; 500 ng/mL): 85.3%; Freeze thaw cycles Accuracy (%) ([2]; 500 ng/mL): 89.0%; −80°C for 1month Accuracy (%) ([2]; 500 ng/mL, −80°C 1 month): 91.2%; Tmax [3]: < 0.5 h
